Results published in the supplement of paper PMC4932681.

Tests used:
BT-474 Tam1 [1] = experiment: drug sensitivity score (DSS) (DSS (dimensionless)); higher = more sensitive; extreme values may be limits of the assay; details: 4-OH-tamoxifen in medium 1 µM; 72 h
Procedure: (§1)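 FIMM FO2B library drugs were tested at 5 concentrations (10,000-fold range) for 72 h, with CellTiter-Glo viability normalised to DMSO and benzethonium chloride controls. The Drug Sensitivity Score (DSS) is computed from the fitted logistic dose-response curve (area-based; 0 = inactive). Resistant lines and the 'in 1µM tamoxifen' arms were tested in 1 µM 4-OH-tamoxifen.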

BT-474 Tam2 [2] = experiment: as above; details: 4-OH-tamoxifen in medium 1 µM; 72 h
Procedure: as §1

BT-474 [3] = experiment: as above; details: 72 h
Procedure: as §1

MCF-7 Tam1 [4] = experiment: as above; details: 4-OH-tamoxifen in medium 1 µM; 72 h
Procedure: as §1

MCF-7 [5] = experiment: as above; details: 72 h
Procedure: as §1

T-47D Tam1 [6] = experiment: as above; details: 4-OH-tamoxifen in medium 1 µM; 72 h
Procedure: as §1

T-47D Tam2 [7] = experiment: as above; details: 4-OH-tamoxifen in medium 1 µM; 72 h
Procedure: as §1

T-47D [8] = experiment: as above; details: 72 h
Procedure: as §1

ZR-75-1 Tam1 [9] = experiment: as above; details: 4-OH-tamoxifen in medium 1 µM; 72 h
Procedure: as §1

ZR-75-1 Tam2 [10] = experiment: as above; details: 4-OH-tamoxifen in medium 1 µM; 72 h
Procedure: as §1

ZR-75-1 [11] = experiment: as above; details: 72 h
Procedure: as §1

BT-474 Tam1 [12] = experiment: relative IC50 (midpoint of fitted logistic curve, plateau may be below 50% inhibition; CellTiter-Glo viability); higher = less potent; details: 4-OH-tamoxifen in medium 1 µM; 72 h
Procedure: (§2)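 FIMM FO2B library drugs were plated at 5 concentrations spanning a 10,000-fold range in 384-well plates. Cells were incubated for 72 h at 37 °C and viability was read by CellTiter-Glo, normalised to DMSO (0% inhibition) and 100 µM benzethonium chloride (100% inhibition). IC50 values come from logistic dose-response fits (Breeze pipeline). Tamoxifen-resistant lines and the 'in 1µM tamoxifen' parental arms were tested in medium with 1 µM 4-OH-tamoxifen.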

BT-474 [13] = experiment: as above; details: 72 h
Procedure: as §2

MCF-7 [14] = experiment: as above; details: 72 h
Procedure: as §2

T-47D Tam1 [15] = experiment: as above; details: 4-OH-tamoxifen in medium 1 µM; 72 h
Procedure: as §2

T-47D Tam2 [16] = experiment: as above; details: 4-OH-tamoxifen in medium 1 µM; 72 h
Procedure: as §2

T-47D [17] = experiment: as above; details: 72 h
Procedure: as §2

ZR-75-1 Tam1 [18] = experiment: as above; details: 4-OH-tamoxifen in medium 1 µM; 72 h
Procedure: as §2

ZR-75-1 [19] = experiment: as above; details: 72 h
Procedure: as §2

BT-474 Tam2 [20] = experiment: as above; details: 4-OH-tamoxifen in medium 1 µM; 72 h
Procedure: as §2

MCF-7 Tam1 [21] = experiment: as above; details: 4-OH-tamoxifen in medium 1 µM; 72 h
Procedure: as §2

ZR-75-1 Tam2 [22] = experiment: as above; details: 4-OH-tamoxifen in medium 1 µM; 72 h
Procedure: as §2

**Q.** Which drug sensitivity score (BT-474 Tam1 [1]) does the source give for `C[C@]12O[C@H](C[C@]1(O)CO)n1c3ccccc3c3c4c(c5c6ccccc6n2c5c31)CNC4=O` [Lestaurtinib] here?
**A.** 2.16

**Q.** What about the drug sensitivity score (BT-474 Tam2 [2]) of the same compound?
**A.** 0.589

**Q.** And the drug sensitivity score (BT-474 [3]; 4-OH-tamoxifen in medium 0 µM)?
**A.** 0.345

**Q.** What about the drug sensitivity score (BT-474 [3]; 4-OH-tamoxifen in medium 1 µM) of the same compound?
**A.** 3.7

**Q.** And the drug sensitivity score (MCF-7 Tam1 [4])?
**A.** 0.391

**Q.** What about the drug sensitivity score (MCF-7 [5]; 4-OH-tamoxifen in medium 0 µM) of the same compound?
**A.** 0.382

**Q.** And the drug sensitivity score (MCF-7 [5]; 4-OH-tamoxifen in medium 1 µM)?
**A.** 0

**Q.** What about the drug sensitivity score (T-47D Tam1 [6]) of the same compound?
**A.** 0

**Q.** What about the drug sensitivity score (T-47D Tam2 [7]) of the same compound?
**A.** 0

**Q.** What about the drug sensitivity score (T-47D [8]; 4-OH-tamoxifen in medium 0 µM) of the same compound?
**A.** 0

**Q.** What about the drug sensitivity score (T-47D [8]; 4-OH-tamoxifen in medium 1 µM) of the same compound?
**A.** 0.579

**Q.** And the drug sensitivity score (ZR-75-1 Tam1 [9])?
**A.** 0

**Q.** What about the drug sensitivity score (ZR-75-1 Tam2 [10]) of the same compound?
**A.** 0.0147

**Q.** What about the drug sensitivity score (ZR-75-1 [11]; 4-OH-tamoxifen in medium 0 µM) of the same compound?
**A.** 0

**Q.** And the drug sensitivity score (ZR-75-1 [11]; 4-OH-tamoxifen in medium 1 µM)?
**A.** 0

**Q.** And the “relative IC50” value (BT-474 Tam1 [12])?
**A.** 0.349 µM

**Q.** And the “relative IC50” value (BT-474 [13]; 4-OH-tamoxifen in medium 1 µM)?
**A.** 0.16 µM

**Q.** And the “relative IC50” value (MCF-7 [14]; 4-OH-tamoxifen in medium 1 µM)?
**A.** > 1 µM

**Q.** And the “relative IC50” value (T-47D Tam1 [15])?
**A.** > 1 µM

**Q.** And the “relative IC50” value (T-47D Tam2 [16])?
**A.** > 1 µM

**Q.** What about the “relative IC50” value (T-47D [17]; 4-OH-tamoxifen in medium 0 µM) of the same compound?
**A.** > 1 µM

**Q.** And the “relative IC50” value (ZR-75-1 Tam1 [18])?
**A.** > 1 µM

**Q.** What about the “relative IC50” value (ZR-75-1 [19]; 4-OH-tamoxifen in medium 0 µM) of the same compound?
**A.** > 1 µM

**Q.** What does the source list for `CN(Cc1cnc2nc(N)nc(N)c2n1)c1ccc(C(=O)N[C@@H](CCC(=O)O)C(=O)O)cc1` [Methotrexate]?
**A.** drug sensitivity score (BT-474 Tam1 [1]): 0; drug sensitivity score (BT-474 Tam2 [2]): 0; drug sensitivity score (BT-474 [3]; 4-OH-tamoxifen in medium 0 µM): 0; drug sensitivity score (BT-474 [3]; 4-OH-tamoxifen in medium 1 µM): 0; drug sensitivity score (MCF-7 Tam1 [4]): 0; drug sensitivity score (MCF-7 [5]; 4-OH-tamoxifen in medium 0 µM): 0.338; drug sensitivity score (MCF-7 [5]; 4-OH-tamoxifen in medium 1 µM): 3.04; drug sensitivity score (T-47D Tam1 [6]): 0; drug sensitivity score (T-47D Tam2 [7]): 0; drug sensitivity score (T-47D [8]; 4-OH-tamoxifen in medium 0 µM): 0; drug sensitivity score (T-47D [8]; 4-OH-tamoxifen in medium 1 µM): 0; drug sensitivity score (ZR-75-1 Tam1 [9]): 1.07; drug sensitivity score (ZR-75-1 Tam2 [10]): 0.0419; drug sensitivity score (ZR-75-1 [11]; 4-OH-tamoxifen in medium 0 µM): 6.76; drug sensitivity score (ZR-75-1 [11]; 4-OH-tamoxifen in medium 1 µM): 0; relative IC50 (BT-474 Tam1 [12]): > 10 µM; relative IC50 (BT-474 Tam2 [20]): > 10 µM; relative IC50 (BT-474 [13]; 4-OH-tamoxifen in medium 0 µM): > 10 µM; relative IC50 (BT-474 [13]; 4-OH-tamoxifen in medium 1 µM): > 10 µM; relative IC50 (T-47D Tam1 [15]): > 10 µM; relative IC50 (T-47D Tam2 [16]): > 10 µM; relative IC50 (T-47D [17]; 4-OH-tamoxifen in medium 0 µM): > 10 µM; relative IC50 (T-47D [17]; 4-OH-tamoxifen in medium 1 µM): > 10 µM; relative IC50 (ZR-75-1 [19]; 4-OH-tamoxifen in medium 0 µM): 0.197 µM; relative IC50 (ZR-75-1 [19]; 4-OH-tamoxifen in medium 1 µM): > 10 µM

**Q.** `CC(C)n1cnc2c(NCCc3ccc(O)cc3)nc(-c3csc4ccccc34)nc21` [StemRegenin 1] was tested. Which drug sensitivity score (BT-474 Tam1 [1]) did it give?
**A.** 7.32

**Q.** And the drug sensitivity score (BT-474 Tam2 [2])?
**A.** 5.49

**Q.** And the drug sensitivity score (BT-474 [3]; 4-OH-tamoxifen in medium 0 µM)?
**A.** 1.47

**Q.** And the drug sensitivity score (BT-474 [3]; 4-OH-tamoxifen in medium 1 µM)?
**A.** 5.07

**Q.** And the drug sensitivity score (MCF-7 Tam1 [4])?
**A.** 0.218

**Q.** What about the drug sensitivity score (MCF-7 [5]; 4-OH-tamoxifen in medium 0 µM) of the same compound?
**A.** 1.85

**Q.** And the drug sensitivity score (MCF-7 [5]; 4-OH-tamoxifen in medium 1 µM)?
**A.** 11.7

**Q.** What about the drug sensitivity score (T-47D Tam1 [6]) of the same compound?
**A.** 1.95

**Q.** And the drug sensitivity score (T-47D Tam2 [7])?
**A.** 4.97

**Q.** What about the drug sensitivity score (T-47D [8]; 4-OH-tamoxifen in medium 0 µM) of the same compound?
**A.** 1.21

**Q.** And the drug sensitivity score (T-47D [8]; 4-OH-tamoxifen in medium 1 µM)?
**A.** 2.41

**Q.** And the drug sensitivity score (ZR-75-1 Tam1 [9])?
**A.** 0.327

**Q.** And the drug sensitivity score (ZR-75-1 Tam2 [10])?
**A.** 1.51

**Q.** What about the drug sensitivity score (ZR-75-1 [11]; 4-OH-tamoxifen in medium 0 µM) of the same compound?
**A.** 0

**Q.** What about the drug sensitivity score (ZR-75-1 [11]; 4-OH-tamoxifen in medium 1 µM) of the same compound?
**A.** 0.414

**Q.** And the “relative IC50” value (BT-474 Tam1 [12])?
**A.** 2.12 µM

**Q.** And the “relative IC50” value (BT-474 Tam2 [20])?
**A.** 2.83 µM

**Q.** And the “relative IC50” value (BT-474 [13]; 4-OH-tamoxifen in medium 1 µM)?
**A.** 3.38 µM

**Q.** What about the “relative IC50” value (MCF-7 [14]; 4-OH-tamoxifen in medium 0 µM) of the same compound?
**A.** 4.4 µM

**Q.** What about the “relative IC50” value (MCF-7 [14]; 4-OH-tamoxifen in medium 1 µM) of the same compound?
**A.** 0.335 µM

**Q.** What about the “relative IC50” value (T-47D Tam1 [15]) of the same compound?
**A.** 3.41 µM

**Q.** What about the “relative IC50” value (T-47D Tam2 [16]) of the same compound?
**A.** 1.57 µM

**Q.** And the “relative IC50” value (T-47D [17]; 4-OH-tamoxifen in medium 0 µM)?
**A.** 4.12 µM

**Q.** What about the “relative IC50” value (T-47D [17]; 4-OH-tamoxifen in medium 1 µM) of the same compound?
**A.** 3.48 µM

**Q.** What does the source list for `CN(N=O)C(=O)N[C@@H](C=O)[C@@H](O)[C@H](O)[C@H](O)CO` [Streptozocin]?
**A.** drug sensitivity score (BT-474 Tam1 [1]): 0; drug sensitivity score (BT-474 Tam2 [2]): 0; drug sensitivity score (BT-474 [3]; 4-OH-tamoxifen in medium 0 µM): 0; drug sensitivity score (BT-474 [3]; 4-OH-tamoxifen in medium 1 µM): 0; drug sensitivity score (MCF-7 Tam1 [4]): 0; drug sensitivity score (MCF-7 [5]; 4-OH-tamoxifen in medium 0 µM): 0; drug sensitivity score (MCF-7 [5]; 4-OH-tamoxifen in medium 1 µM): 0; drug sensitivity score (T-47D Tam1 [6]): 0; drug sensitivity score (T-47D Tam2 [7]): 0; drug sensitivity score (T-47D [8]; 4-OH-tamoxifen in medium 0 µM): 0; drug sensitivity score (T-47D [8]; 4-OH-tamoxifen in medium 1 µM): 0; drug sensitivity score (ZR-75-1 Tam1 [9]): 0; drug sensitivity score (ZR-75-1 Tam2 [10]): 0; drug sensitivity score (ZR-75-1 [11]; 4-OH-tamoxifen in medium 0 µM): 0; drug sensitivity score (ZR-75-1 [11]; 4-OH-tamoxifen in medium 1 µM): 0; relative IC50 (BT-474 Tam1 [12]): > 10 µM; relative IC50 (BT-474 Tam2 [20]): > 10 µM; relative IC50 (BT-474 [13]; 4-OH-tamoxifen in medium 0 µM): > 10 µM; relative IC50 (BT-474 [13]; 4-OH-tamoxifen in medium 1 µM): > 10 µM; relative IC50 (MCF-7 Tam1 [21]): > 10 µM; relative IC50 (MCF-7 [14]; 4-OH-tamoxifen in medium 0 µM): > 10 µM; relative IC50 (MCF-7 [14]; 4-OH-tamoxifen in medium 1 µM): > 10 µM; relative IC50 (T-47D Tam1 [15]): > 10 µM; relative IC50 (T-47D [17]; 4-OH-tamoxifen in medium 0 µM): > 10 µM; relative IC50 (T-47D [17]; 4-OH-tamoxifen in medium 1 µM): > 10 µM; relative IC50 (ZR-75-1 Tam1 [18]): > 10 µM; relative IC50 (ZR-75-1 Tam2 [22]): > 10 µM; relative IC50 (ZR-75-1 [19]; 4-OH-tamoxifen in medium 0 µM): > 10 µM; relative IC50 (ZR-75-1 [19]; 4-OH-tamoxifen in medium 1 µM): > 10 µM
